# Measured values: publication PMC7377239, “Cardiovascular Effects of Polychlorinated Biphenyls and Their Major Metabolites” (Environmental Health Perspectives, 2020)
# Read-outs that look alike come from different tables or passages of the source.
# Tests used:
# [1] = system: HUVECs; test: Tube formation (tubulogenesis) assay in HUVECs, 18 h; type: cell-based, human; conditions: Homo sapiens, HUVEC, 18 h, HUVECs tube formation; for activity at 0.01 µM: concentration 0.01 µM; for activity at 0.1 µM: concentration 0.10 µM; for activity at 1 µM: concentration 1.00 µM; for activity at 10 µM: concentration 10.00 µM; for activity at 100 µM: concentration 100.00 µM
# Description: (§1) Similar to the cultivation of iCell®-endothelial cells, HUVEC maintenance and experimentation are detailed elsewhere ([Iwata et al. 2017]). Briefly, HUVECs were thawed, seeded, and grown in T75 tissue culture flasks in Medium 199 with EGM™-2 BulletKits™. HUVECs were incubated at regular cell culture conditions, 37°C and 5% CO2 , and passaged every 2–3 d using TrypLE™ Express. To ensure adequate endothelial function, experiments were performed with cells between passages 1 and 5.
# Tube formation assays were performed on Geltrex™ LDEV-free reduced growth factor basement membrane using both iCell®-endothelial cells and HUVECs in 384-well format exactly as detailed in Iwata et al. ([2017]). Negative controls included media-only and vehicle control (i.e., 0.5% vol/vol DMSO in cell culture media) wells. Positive assay controls were consistent with previously published reports ([Iwata et al. 2017]) and included TAB ( 50μM ) as a cytotoxic control, and nocodazole ( 0.01–1μM ), suramin ( 0.5–50μM ), histamine ( 0.1–100μM ), and chloroquine ( 1–500μM ) as chemicals associated with specific effects on ECs. Each test chemical was screened in triplicate for each concentration. Briefly, for iCell®-endothelial cells, starvation media consisted of VascuLife® basal medium with 4 mM L-glutamine LifeFactor and 0.1% iCell®-endothelial cells medium supplement. To counter dilution effects, a 2× concentration of the HUVEC maintenance medium supplemented with additional VEGF was created (EGM™-2 BulletKits™ at 2× concentration; also the VEGF component was replaced with 12.5 ng/mL VEGF). Geltrex™ LDEV-free reduced growth factor basement membrane was thawed overnight and dispensed into 384-well plates ( 10μL/well ) with tapping and rotating to evenly coat. The plates were incubated for 1 h in a cell culture incubator at 37°C and 5% CO2 . A 2× PCB plate (containing all of the PCBs and metabolites in dose–response) was prepared in basal media and added, 25μL per well, to the Geltrex™ coated plates. On separate plates, cells were seeded 7,500 (iPSC- ECs) or 3,500 (HUVEC) cells/well. Cells were exposed to chemicals overnight at 37°C and 5% CO2 and stained with 3× concentration of calcein AM ( 25μL /well, 6μmol/L ) for 15 min before imaging. Images were captured at 4× magnification with the FITC filter (calcein AM). Images were analyzed with the angiogenesis module software within MetaXpress™ (Molecular Devices).
# (§2) Phenotypic responses were quantitatively assessed using concentration–response modeling as detailed elsewhere ([Sirenko et al. 2017]). Briefly, phenotypic readouts were normalized to vehicle controls and fit to a four-parameter logistic model in R studio software (version 3.1.1; R Development Core Team). Following EPA guidance on dose–response modeling, a cutoff of one standard deviation across means of vehicle control (i.e., 0.5% vol/vol DMSO in cell culture media) wells was applied to determine the point-of-departure (POD) values ([U.S. EPA 2012]). In the absence of a concentration–response, the highest tested concentration (i.e., 100μM ) was assigned as “no observable adverse effect level.” The concentration–response assessment R script, as well as templates for vehicle and concentration–response data, are available as a supplement to Sirenko et al. ([2017]). The ability of physicochemical properties to predict differences in PODs were evaluated by multiregression and mixed-effects modeling using R.
# [2] = system: HUVECs; test: High-content imaging cytotoxicity in HUVECs, 24 h; type: cell-based, human; conditions: Homo sapiens, HUVEC, 24 h, HUVECs; for viability at 0.01 µM / activity at 0.01 µM: concentration 0.01 µM; for viability at 0.01 µM / activity at 0.01 µM / viability at 0.1 µM / activity at 0.1 µM / viability at 1 µM / activity at 1 µM / viability at 10 µM / activity at 10 µM / viability at 100 µM / activity at 100 µM: 0.00 µM = 100.00; for viability at 0.1 µM / activity at 0.1 µM: concentration 0.10 µM; for viability at 1 µM / activity at 1 µM: concentration 1.00 µM; for viability at 10 µM / activity at 10 µM: concentration 10.00 µM; for viability at 100 µM / activity at 100 µM: concentration 100.00 µM; for minimal effective concentration: MAX 100.00
# Description: as §1
# Cytotoxicity was assessed in parallel experiments. For iCell®-endothelial cells, 384-well plates were coated with a 30μg/mL fibronectin solution ( 10μL/well ) and incubated for 2 h at RT. iCell®-endothelial cells were dissociated with TrypLE™ Express and prepared into a solution to achieve 750 cells per well and 50μL of total volume. The fibronectin solution was removed from the 384-well plate, and cells were plated. For HUVECs, similar dissociation and the same cell density were used for plating with the exclusion of the fibronectin solution. Cells were incubated at 37°C and 5% CO2 until a monolayer was formed, typically 3–5 d. 2×PCB plates were created with the requisite maintenance medium. Before treatment, the medium in the wells was exchanged to 25μL/well of fresh maintenance medium. 2×PCB chemical solutions ( […] ) were added. After 24 h incubation at 37°C and 5% CO2 , cells were stained with Hoechst 33342, MitoTracker™ Orange, and calcein AM for 20 min before replacing the staining media with FluoroBright DMEM. Cell culture plates were imaged using the ImageXpress® Micro Confocal high-content imaging system (Molecular Devices). Images were acquired at 10× magnification with DAPI, TRITC, or FITC filter (Hoechst 33342, MitoTracker™, or calcein AM, respectively). The multiwavelength cell scoring applications module in MetaXpress™ (Molecular Devices) was used to analyze the images.
# as §2
# [3] = 0.00 µM = 100.00, read-out: huvec.mtl.18hr
# [4] = 0.00 µM = 100.00, read-out: huvec.tlps.18hr
# [5] = 0.00 µM = 100.00, read-out: huvec.tta.18hr
# [6] = 0.00 µM = 100.00, read-out: huvec.ttl.18hr
# [7] = 24 hr, read-out: huvec.cyto.24hr
# [8] = 24 hr, read-out: huvec.mito.24hr
# [9] = 24 hr, read-out: huvec.mitoint.24hr
# [10] = 24 hr, read-out: huvec.nma.24hr
# [11] = 24 hrs, read-out: huvec.tc.24hrs
smiles,measurement,setting,value
Clc1ccc(Cl)c(-c2c(Cl)ccc(Cl)c2Cl)c1 [PCB95],minimal effective concentration,"[1]; MAX 100.00, read-out: huvec.mtl.18hr POD",8.29 µM
same,minimal effective concentration,"[1]; MAX 100.00, read-out: huvec.tlps.18hr POD",100 µM
same,minimal effective concentration,"[1]; MAX 100.00, read-out: huvec.tta.18hr POD",100 µM
same,minimal effective concentration,"[1]; MAX 100.00, read-out: huvec.ttl.18hr POD",100 µM
same,activity at 0.01 µM,[1]; [3],96.9%
same,activity at 0.01 µM,[1]; [4],80.5%
same,activity at 0.01 µM,[1]; [5],75.1%
same,activity at 0.01 µM,[1]; [6],63%
same,activity at 0.1 µM,[1]; [3],82.7%
same,activity at 0.1 µM,[1]; [4],88.7%
same,activity at 0.1 µM,[1]; [5],71.1%
same,activity at 0.1 µM,[1]; [6],63.9%
same,activity at 1 µM,[1]; [3],104%
same,activity at 1 µM,[1]; [4],86.3%
same,activity at 1 µM,[1]; [5],78.7%
same,activity at 1 µM,[1]; [6],68.7%
same,activity at 10 µM,[1]; [3],87.4%
same,activity at 10 µM,[1]; [4],88.9%
same,activity at 10 µM,[1]; [5],84%
same,activity at 10 µM,[1]; [6],79.8%
same,activity at 100 µM,[1]; [3],72.8%
same,activity at 100 µM,[1]; [4],64.1%
same,activity at 100 µM,[1]; [5],68.8%
same,activity at 100 µM,[1]; [6],61.4%
same,viability at 0.01 µM,[2]; [7],81%
same,activity at 0.01 µM,[2]; [8],79.4%
same,activity at 0.01 µM,[2]; [9],106%
same,activity at 0.01 µM,[2]; [10],97.4%
same,viability at 0.1 µM,[2]; [7],85.5%
same,activity at 0.1 µM,[2]; [8],84.2%
same,activity at 0.1 µM,[2]; [9],109%
same,activity at 0.1 µM,[2]; [10],98.6%
same,viability at 1 µM,[2]; [7],94.8%
same,activity at 1 µM,[2]; [8],93.4%
same,activity at 1 µM,[2]; [9],106%
same,activity at 1 µM,[2]; [10],98.7%
same,viability at 10 µM,[2]; [7],70.3%
same,activity at 10 µM,[2]; [8],63.8%
same,activity at 10 µM,[2]; [9],76.7%
same,activity at 10 µM,[2]; [10],86.4%
same,viability at 100 µM,[2]; [7],64.5%
same,activity at 100 µM,[2]; [8],50.7%
same,activity at 100 µM,[2]; [9],18.7%
same,activity at 100 µM,[2]; [10],56.5%
same,minimal effective concentration,"[2]; 24 hr, read-out: huvec.cyto.24hr POD",0.01 µM
same,minimal effective concentration,"[2]; 24 hr, read-out: huvec.mito.24hr POD",0.022 µM
same,minimal effective concentration,"[2]; 24 hr, read-out: huvec.mitoint.24hr POD",7.41 µM
same,minimal effective concentration,"[2]; 24 hr, read-out: huvec.nma.24hr POD",1.93 µM
same,viability at 0.01 µM,[2]; [11],81%
same,viability at 0.1 µM,[2]; [11],85.5%
same,viability at 1 µM,[2]; [11],94.8%
same,viability at 10 µM,[2]; [11],70.3%
same,viability at 100 µM,[2]; [11],64.5%
same,minimal effective concentration,"[2]; 24 hrs, read-out: huvec.tc.24hrs POD",0.01 µM
